Values quoted from earlier work, collected in patent publication US10702520B1, “Pharmaceutical compositions of posaconazole” (SLAYBACK PHARMA LLC, priority 2019, dated 2020).
Where two headings read alike, the source gives them in different places.

| solubility (in 0.1 N Hydrochloric acid) | solubility (in water) | solubility (at gastric pH) | solubility (pH about 6.4 or higher) | Compound |
| --- | --- | --- | --- | --- |
| 6 µg/mL | less than 1 μg/mL |  |  | CCC(C)n1ncn(-c2ccc(N3CCN(c4ccc(OC[C@H]5CO[C@](Cn6cncn6)(c6ccc(Cl)cc6Cl)O5)cc4)CC3)cc2)c1=O (mixture of isomers) [Itraconazole] |
|  |  | approximately 0.8 mg/mL | less than 1 μg/mL | CC[C@@H]([C@H](C)O)n1ncn(-c2ccc(N3CCN(c4ccc(OC[C@@H]5CO[C@@](Cn6cncn6)(c6ccc(F)cc6F)C5)cc4)CC3)cc2)c1=O [Posaconazole free base, 4-[4-[4-[4-[[(3R,5R)-5-(2,4-difluorophenyl)tetrahydro-5-(1H-1,2,4-triazol-1-ylmethyl)-3-furanyl]methoxy]phenyl]-1-piperazinyl]phenyl]-2-[(1S,2S)-1-ethyl-2-hydroxypropyl]-2,4-dihydro-3H-1,2,4-triazol-3-one] |
